Each block holds one compound with its values, some of them ahead of it.
Key:
[1] = system: panel of GPCRs; assay: GPCR off-target screen, whole panel; type: binding; details: 1 μM; selection of 24 GPCRs (Table S3)
[2] = system: panel of kinases; assay: Kinase off-target screen, whole panel; type: binding; details: 10 μM; 97 kinases (Table S4)
[3] = target: hCB2R (Homo sapiens, UniProt P34972); assay: hCB2R cAMP assay; type: cell-based; details: for agonist activity at the CB2R (in words): CHO cell cAMP assay
[4] = Mouse liver microsome; type: in vitro ADME; details: mouse liver microsomes, 37 °C, with NADPH
[5] = Solubility observations; type: physicochemical; details: in the vehicle (DMSO) or under the assay conditions

Chain of hCB2R (P34972 whole entry): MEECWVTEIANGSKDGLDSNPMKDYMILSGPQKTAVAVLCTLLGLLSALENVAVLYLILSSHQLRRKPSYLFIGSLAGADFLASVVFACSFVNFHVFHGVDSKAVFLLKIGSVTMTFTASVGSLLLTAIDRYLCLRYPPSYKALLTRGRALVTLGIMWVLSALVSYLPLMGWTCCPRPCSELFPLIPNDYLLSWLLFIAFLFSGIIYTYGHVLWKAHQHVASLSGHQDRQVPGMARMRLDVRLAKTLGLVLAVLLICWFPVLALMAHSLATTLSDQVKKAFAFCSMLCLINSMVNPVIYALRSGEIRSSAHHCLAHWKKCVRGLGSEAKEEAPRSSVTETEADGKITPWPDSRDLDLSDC

binding at any of the GPCRs tested [1]: no significant binding
binding with any of the kinases tested [2]: no significant binding
EC50 [3]: 120 nM
SMILES: N#Cc1ccccc1CSc1nnc2c(n1)[nH]c1ccccc12 [Compound 7, 3-((2′-Cyanobenzyl)thio)-5H-[1,2,4]triazino[5,6-b]indole]

agonist activity at the CB2R (in words) [3]: no detectable agonist activity
SMILES: Sc1nnc2c(n1)[nH]c1ccccc12 [Compound 9, 5H-[1,2,4]Triazino[5,6-b]indole-3-thiol]

SMILES: Fc1ccccc1CSc1nnc2c(n1)[nH]c1ccccc12 [Compound 14, 3-((2′-Fluorobenzyl)thio)-5H-[1,2,4]triazino[5,6-b]indole]
agonist activity at the CB2R (in words) [3]: no activity up to the highest concentrations tested

agonist activity at the CB2R (in words) [3]: no detectable activity
SMILES: CC(=O)n1c2ccccc2c2nnc(SCc3ccccc3C#N)nc21 [Compound 66, 2′(((5-Acetyl-5H-[1,2,4]triazino[5,6-b]indol-3-yl)thio)methyl)benzonitrile]

SMILES: N#Cc1ccccc1CSc1nnc2c3ccccc3n(C(=O)c3ccccc3)c2n1 [Compound 72]
MLM stability t1/2 [4]: no parent compound could be detected at the earliest time point

SMILES: CN(C)c1ccc(C(=O)n2c3ccccc3c3nnc(SCc4ccccc4C#N)nc32)cc1 [Compound 78]
solubility (in words) [5]: extremely poorly soluble under the assay conditions
